Assay results reported in article PMC10821532, “Sex and Cross-Sex Testosterone Treatment Alters Gamma-Hydroxybutyrate Acid Toxicokinetics and Toxicodynamics in Rats” (Pharmaceutics, 2024).

Tested on: Sprague Dawley (SD) rats
Experiment: Sedative/hypnotic effect (sleep time, RRR-LRR) after i.v. GHB
Assay type: in vivo
Conditions: 1500 mg/kg GHB iv
Method: Jugular vein cannulas were surgically implanted under anesthesia with ketamine/xylazine. Cannulas were flushed daily with heparinized saline to maintain patency. Rats were allowed a minimum of 72 h for recovery from surgery before the experiments were conducted. GHB was administered intravenously as a 1000 mg/kg i.v. bolus or 1500 mg/kg iv bolus with or without AR-C155858 (1 mg/kg i.v. bolus) via a jugular vein cannula to the animals at 13 weeks of age (N = 5–7 per group). Rats were dosed in metabolic cages with ad libitum access to water to allow for the concurrent collection of blood and urine samples for up to 8 h. GHB was administered as a 300 mg/mL solution in sterile water, and the time of administration was considered as time 0. AR-C155858 was administered as a 1 mg/mL solution in 10% cyclodextrin in normal saline 5 min after GHB administration. Blood samples (200 μL) were taken from the jugular vein cannula at different time points: 5, 10, 20, 30, 60, 90, 120, 180, 240, 270, 300, and 330 min for 1000 mg/kg and 10, 30, 60, 90, 120, 180, 240, 270, 300, 330, 360, and 390/480 min for 1500 mg/kg bolus with or without AR-C155858. Plasma samples were separated by centrifugation and stored at −20 °C. Urine samples were collected at 120, 240, and 360 min for 1000 mg/kg and 120, 240, and 390/480 min for 1500 mg/kg bolus with or without AR-C155858 post-dose; the total urine volume was determined, and the samples were stored at −20 °C.
The sedative/hypnotic effects (sleep time) were determined, as described in a previous publication. The sedative/hypnotic duration effect of GHB was determined as the difference between the offset of the sedative/hypnotic effect (RRR) and the onset of the sedative/hypnotic effect (LRR).

## O=C(O)CCCO [GHB, Γ-hydroxybutyric acid]
testosterone-treated CST rats
  Sleep time (RRR–LRR), average: 422.5 min
Two of the testosterone-treated CST rats
  Sleep time, two individual rats: ~ 600 min
